The assay concerns the target T1, phospholipid hydroperoxide glutathione peroxidase (PHGPx) (Rattus norvegicus, UniProt P36970).
T1 construct: from tissue; host or cells: Wistar rat: cells from seminiferous tubules of the testis, epididymal spermatozoa, sperm mitochondrial capsule
T1 sequence (P36970 3-170 isoform P36970-2 limits assumed): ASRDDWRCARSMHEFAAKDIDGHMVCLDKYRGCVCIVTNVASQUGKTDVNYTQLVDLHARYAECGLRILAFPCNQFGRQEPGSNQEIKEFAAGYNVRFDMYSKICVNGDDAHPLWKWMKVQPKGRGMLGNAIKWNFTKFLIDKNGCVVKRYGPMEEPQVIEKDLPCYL
The assay can be described thus: PHGPx activity after solubilisation/reduction with thiols (phosphatidylcholine hydroperoxide substrate). In kind it is biochemical. To be noted: for PHGPx activity: 6M guanidine-HCl, pH 7.5, 4° C., 10 min. The protocol:
In fact, the specific activities thus obtained from mitochondrial capsules exceed, by a factor of 20, the highest values ever measured, i.e. in spermatogenic cells. Nevertheless, this extreme PHGPx activity is still low compared to its content in PHGPx protein.
Spermatozoa of four month old Wistar rats (about 300 grams of body weight) were collected by squeezing cauda epididymis and vas deferens in phosphate buffer saline (PBS) and by centrifugating at 600×g for 10 minutes. Cell and sperm pellets were layered on a discontinous 45%, 70% and 95% Percoll gradient and centrifugated at 300×g for 20 min. Spermatogenic cells stacked on top of the gradient, while spermatozoa separated into the 70% Percoll layer. Cells from seminiferous epithelium were prepared as follows (26): testes were deprived of albuginea, seminiferous tubules were cut into small pieces in PBS containing 0.250 mg/ml collagenase, and incubated twice 25° C. for 15 min. Cells then were filtered through a stainless steel screen (140 μm pore), washed in PBS and centrifugated at 300×g for 10 min. Sperm mitochondrial capsule was prepared according to Calvin et al. (1): sperms were resuspended in 0.05 M Tris-HCl pH 8.0 at the concentration of 10^6 cells/ml and treated with trypsin (0.2 mg/ml) for 10 minutes. After stopping the protease action with trypsin inhibitor (0.5 mg/ml) and SDS (10 mg/ml) sperms were centrifugated at 1,500×g for 10 minutes. Pellets were resuspended in 0.05 M Tris-HCl, pH 8.5 containing 1% sodium dodecyl sulphate (SDS), and 0.2 mM DTT and kept under continuous stirring for 30 minutes. Following centrifugation at 4,500×g for 15 min, the resulting supernatant was layered on a 1.6 M sucrose cushion. After centrifugation for 20 min at 18,000×g in a swinging rotor, sperm capsules were collected as a band at the top of the sucrose cushion, washed in Tris-HCl, pH 8.0 and spun at 140,000×g.
When applicable, PHGPx was also identified by activity measurement according to (28) using the specific substrate phosphatidylcholine hydroperoxide.

The mark [1] stands for this setting: 0.1 M thiol in the presence of guanidine, measured after elimination of denaturating and reducing agents.

In the case of `OCCS` [2-mercaptoethanol], the “Reactivation of latent PHGPx of sperm mitochondrial capsule / mature spermatozoa” value under setting [1] is recorded as “regenerate a significant PHGPx activity”. Also, the PHGPx activity is listed as 250 ± 10 mU/mg protein (Cells from seminiferous tubules, 5 mM 2-mercaptoethanol, mean and S.D. of five); 260 ± 10 mU/mg protein (Cells from seminiferous tubules, 100 mM 2-mercaptoethanol, mean and S.D. of five); “undetectable” (Mitochondrial capsule, 5 mM 2-mercaptoethanol); 5,600 ± 290 mU/mg protein (Mitochondrial capsule, 100 mM 2-mercaptoethanol, mean and S.D. of five); “undetectable” (Spermatozoa from tail of epididymis, 5 mM 2-mercaptoethanol); 3,140 ± 200 mU/mg protein (Spermatozoa from tail of epididymis, 100 mM 2-mercaptoethanol, mean and S.D. of five).
As for `O[C@H](CS)[C@H](O)CS` (racemic) [dithiothreitol], under setting [1], the “Reactivation of latent PHGPx of sperm mitochondrial capsule / mature spermatozoa” value is “regenerate a significant PHGPx activity”.
As for `N[C@@H](CCC(=O)N[C@@H](CS)C(=O)NCC(=O)O)C(=O)O` [glutathione], where the note is “glutathione in the low millimolar range, conventional test conditions”, the “Reactivation of latent PHGPx of sperm mitochondrial capsule / mature spermatozoa” value was “neither reactivated”.

Source of the values: patent US6884601B1, “Method to detect fertilization potential of sperm” (priority 1999, dated 2005).
